From patent US8367328B2, “Method for synthesizing DNA” (Takara Bio Inc., priority 1998, dated 2013)

Target: T1, Taq DNA Polymerase (Thermus aquaticus, UniProt P19821)
T1 construct: purchased Takara Shuzo Co., Ltd
Assay: PCR with Taq DNA Polymerase in the presence of cationic complexes
Assay type: biochemical
Conditions: for Amount of amplified DNA relative to No Addition (=1), Taq: 100 pg E. coli JM109 genomic DNA, primers Eco1/Eco2, 30 cycles 98°C 5 s–68°C 2 min, FM-BIO 100
Text: Using hexaamminecobalt (III) chloride ([Co(NH3)6]Cl3) (manufactured by Sigma), tris(ethylenediamine)cobalt (III) chloride ([Co(C2H8N2)3]Cl3) (manufactured by Aldrich), or tris(ethylenediamine)rhodium (III) trichloride•trihydrate ([Rh(C2H8N2)3]Cl3.3H2O) (manufactured by Aldrich), the effects on the amplification reaction by various kinds of DNA polymerases were examined. As the DNA polymerases, TaKaRa Taq DNA Polymerase (hereinafter referred to as “Taq DNA Polymerase” manufactured by Takara Shuzo Co., Ltd.), Pyrobest DNA Polymerase (manufactured by Takara Shuzo Co., Ltd.) and Ex Taq DNA Polymerase (manufactured by Takara Shuzo Co., Ltd.) were used.
A reaction mixture comprising Escherichia coli JM109 genomic DNA as a template, primers Eco1 and Eco2 as a primer pair, and DNA polymerase was prepared, and PCR was carried out. The compositions of the reaction mixture for each enzyme are as follows.
5 μl of buffer for 10×Taq PCR buffer (manufactured by Takara Shuzo Co., Ltd.), 0.2 mM each of dATP, dCTP, dGTP and dTTP, 1.25 U of Taq DNA Polymerase, 100 pg of Escherichia coli JM109 genomic DNA, and 10 pmol each of primers Eco1 and Eco2 (a final volume being 50 μl).
Further, an aqueous solution of the above-mentioned complexes each so as to have a final concentration of 50 μM, 100 μM, or 200 μM was added to the above reaction mixture.
The reaction was carried out in Fast mode by using TaKaRa PCR Thermal Cycler Personal (manufactured by Takara Shuzo Co., Ltd.). The reaction conditions are as follows. When using Taq DNA Polymerase and Pyrobest DNA Polymerase, the reaction in 30 cycles was carried out for each of these reaction mixtures, wherein one cycle of reaction comprises a process consisting of 98° C., 5 seconds—68° C., 2 minutes, and when using ExTaq DNA Polymerase, the reaction in 30 cycles was carried out for each of these reaction mixtures, wherein one cycle of reaction comprises a process consisting of 98° C., 5 seconds—68° C., 1 minute. After the termination of the reaction, 5 μl of the resulting reaction mixture was subjected to electrophoresis on 2% agarose gel containing ethidium bromide in an amount of 0.00005%. The gel after the electrophoresis was subjected to ultraviolet irradiation to visualize the band ascribed to the amplified product, whereby an amplified fragment was confirmed. The amount of amplified DNA was numerically explained by using a fluorescent image analyzer FM-BIO 100 (manufactured by Takara Shuzo Co., Ltd.).
The DNA polymerases used and the composition for the reaction mixture were similar to those in Example 17, except for the cationic complex, where in cases of using Taq DNA Polymerase and Pyrobest DNA Polymerase, hexaamminecobalt (III) chloride was added so as to have a final concentration of 100 μM, and in a case of using ExTaq DNA Polymerase, hexaamminecobalt (III) chloride was added so as to have a final concentration of 50 μM, respectively.
The reaction was carried out in Fast mode by using TaKaRa PCR Thermal Cycler Personal. The reaction conditions are as follows. When using Taq DNA Polymerase and Pyrobest DNA Polymerase, the reaction in 30 cycles was carried out, wherein one cycle of reaction comprises a process consisting of 98° C., […], 60 seconds or 80 seconds or 100 seconds or 120 seconds. When using ExTaq DNA Polymerase, the reaction in 30 cycles was carried out, wherein one cycle of reaction comprises a process consisting of 98° C., 5 seconds—68° C., 30 seconds or 40 seconds or 50 seconds or 60 seconds.
On the other hand, as a control, the time period or number of cycles for annealing and extension reaction were determined so as to obtain the same amount of the amount of amplified product for one without addition of the cationic complex mentioned above.
After the termination of the reaction, 5 μL of the resulting reaction mixture was subjected to electrophoresis on 2% agarose gel containing ethidium bromide in an amount of 0.00005%. […]

T1 sequence (P19821 whole entry): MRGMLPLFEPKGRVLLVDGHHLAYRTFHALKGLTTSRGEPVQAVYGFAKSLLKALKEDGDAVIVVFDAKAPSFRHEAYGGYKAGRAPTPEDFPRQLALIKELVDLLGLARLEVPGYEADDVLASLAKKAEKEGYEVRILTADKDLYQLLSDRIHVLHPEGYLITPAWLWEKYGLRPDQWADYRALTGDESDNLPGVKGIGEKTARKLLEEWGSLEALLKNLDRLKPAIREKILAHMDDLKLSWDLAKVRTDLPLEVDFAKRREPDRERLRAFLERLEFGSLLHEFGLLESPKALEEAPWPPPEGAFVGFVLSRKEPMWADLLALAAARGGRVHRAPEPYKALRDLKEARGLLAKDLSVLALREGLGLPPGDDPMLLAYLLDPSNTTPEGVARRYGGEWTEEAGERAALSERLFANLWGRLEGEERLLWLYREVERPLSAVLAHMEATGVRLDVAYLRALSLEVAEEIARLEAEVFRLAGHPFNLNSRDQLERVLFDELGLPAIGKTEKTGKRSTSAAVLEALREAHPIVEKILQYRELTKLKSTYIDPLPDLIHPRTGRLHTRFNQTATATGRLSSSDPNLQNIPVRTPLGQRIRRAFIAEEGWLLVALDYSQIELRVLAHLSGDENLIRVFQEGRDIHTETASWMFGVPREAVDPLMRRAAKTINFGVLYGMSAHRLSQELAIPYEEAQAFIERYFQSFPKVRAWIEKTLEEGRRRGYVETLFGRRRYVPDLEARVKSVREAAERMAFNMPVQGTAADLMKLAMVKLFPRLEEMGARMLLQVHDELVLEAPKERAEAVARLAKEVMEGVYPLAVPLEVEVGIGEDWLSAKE

SMILES | Amount of amplified DNA relative to No Addition (=1), Taq (complex 50 μM) | Amount of amplified DNA relative to No Addition (=1), Taq (complex 100 μM) | Amplification with one-half the usual enzyme amount versus usual amount without addition (Taq 0.625 U + 100 μM complex vs 1.25 U without addition) | Amplification of desired long DNA fragment (Taq, 10 ng E. coli genome, primers Eco1/Eco5 (10 kb), 30 cycles 98°C 5 s–68°C 10 min, 10 μM or 20 μM, only slight without addition) | Reaction time period as fraction of that of no addition (Taq, 100 μM) | Time Period Required (for same amount of amplified product) (Taq, 100 μM complex added, 98°C 5 s–68°C 60 s, 30 cycles (no addition: 120 s, 31 cycles, 4911 s)) [s] | Primer amount with which a fragment can still be amplified (Taq, 100 μM complex, primers 2–20 pmol tested, no amplification without addition) [pmol] | Amount of template DNA at which amplification was still possible (Taq, 100 μM complex, templates 1 pg–1 ng tested, no amplification at 1 pg without addition) [pg] | Amplification in low-magnesium reaction mixture (Taq, 0.75 mM magnesium chloride (usual 1.5 mM), 100 μM complex, no amplification without addition) | Amount of amplified DNA relative to No Addition (=1), Taq (complex 200 μM)
NCCN.NCCN.NCCN.[Cl-].[Cl-].[Cl-].[Co+3] [[Co(H2NCH2CH2NH2)3]Cl3, tris(ethylenediamine)cobalt (III) chloride] | 2.6 | 3.0 |  |  |  |  |  |  |  | 
N.N.N.N.N.N.[Cl-].[Cl-].[Cl-].[Co+3] [[Co(NH3)6]Cl3, hexaamminecobalt (III) chloride] | 2.3 | 2.9 | almost the same level | excellently amplified | about ⅗ | 2953 | 2 | 1 | allowed to amplify | 
NCCN.NCCN.NCCN.O.O.O.[Cl][Rh]([Cl])[Cl] [[Rh(H2NCH2CH2NH2)3]Cl3, tris(ethylenediamine)rhodium (III) trichloride•trihydrate] | 1.4 | 2.1 |  |  |  |  |  |  |  | 2.5
